The data set is classed as in vivo, human. The following applies: for Tmax: both, human, serum, oral, 3 g, mean Tmax, all participants (RG and FRG groups together).

Data on 2 compounds can be found in publication PMC7322745 (Journal of Ginseng Research, 2019).

As a reminder, the Tmax is the time from dosing to the highest level.

Turning to `CC(C)=CCC[C@](C)(O[C@@H]1O[C@H](CO)[C@@H](O)[C@H](O)[C@H]1O)[C@H]1CC[C@]2(C)[C@@H]1[C@H](O)C[C@@H]1[C@@]3(C)CC[C@H](O[C@@H]4O[C@H](CO)[C@@H](O)[C@H](O)[C@H]4O)C(C)(C)[C@@H]3CC[C@]12C` [F2, ginsenoside F2], the Tmax came out at 9.32 ± 3.38 h. Moreover, the “AUC in the FRG group relative to the RG group” value (mean AUC, FRG group vs RG group) is listed as “more than six”.

Turning to `CC(C)=CCC[C@](C)(O[C@@H]1O[C@H](CO)[C@@H](O)[C@H](O)[C@H]1O)[C@H]1CC[C@]2(C)[C@@H]1[C@H](O)C[C@@H]1[C@@]3(C)CC[C@H](O[C@@H]4O[C@H](CO)[C@@H](O)[C@H](O)[C@H]4O[C@@H]4O[C@H](CO)[C@@H](O)[C@H](O)[C@H]4O)C(C)(C)[C@@H]3CC[C@]12C` [Rd, ginsenoside Rd], the Tmax was 9.41 ± 4.42 h.
